Laboratory results reported in PubChem BioAssay (NCI).
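Tested at 5 concentrations; 48 h exposure; 96-well plates; endpoints linearly interpolated, else capped at highest concentration. TGI is the concentration that stops growth completely.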

What follows are compounds tested on SF-539 CNS (assay: NCI tumour cell line growth inhibition, 48 h).
With `Nc1nc([O-])c2c(n1)[n+](C1OC(CO)C(O)C1O)cn2CCO` (stereo not drawn) the TGI was over 100 µM.
For `O=C(NCP(=O)(c1ccccc1)c1ccccc1)OCc1ccccc1`, the TGI was over 100 µM.
`CCOC(C)O[C@H]1C(=O)OCC1(C)C` (stereo partly drawn) gave a TGI of over 100 µM.
`CC(CC[C@@]1(C)C(=O)CCC2O[C@]21C)[C@H]1C[C@@H](c2ccoc2)OC1=O` (stereo partly drawn) gave a TGI of 69.1 µM.
`O=Cc1ccccc1COC(=O)c1cc(C(=O)OCc2ccccc2C=O)c(C(=O)OCc2ccccc2C=O)cc1C(=O)OCc1ccccc1C=O` was tested, and the TGI was over 100 µM.
`CCOC1=NC(O)c2cccn2-c2sccc21` (stereo not drawn) showed a TGI of over 100 µM.
`COC(=O)c1cc2c(cc1CC(Cc1ccc3c(c1)CCCC3)C(=O)OC)CCCC2` (stereo not drawn) was tested, and the TGI was over 100 µM.
`O=C1c2ccsc2C(=O)c2sc(CO)cc21` showed a TGI of 0.1 µM.
For `O=C(c1cccs1)N1CCc2ccccc2C1`, the TGI was over 100 µM.
Work on `CC1S/C(=N\N=C2/C(=O)Nc3ccc(Br)cc32)N(C2CCCCC2)C1=O` (stereo not drawn) yielded a TGI of 16.3 µM.
In the case of `CN(C)CC1CCCC(CN(C)C)C1OC(=O)c1ccccc1` (stereo not drawn), the TGI is reported as over 100 µM.
`CCCCC1Cc2ccccc2-c2nc3ccccc3n21` (stereo not drawn) was tested, and the TGI was 41.4 µM.
For `Cc1cc(N(CCC#N)CCC#N)ccc1/C=C(\NC(=O)/C=C/c1ccccc1)C(N)=O`, the TGI was over 100 µM.
For `CCC(=O)Oc1ccc2c(c1)c(=O)c1c(NCCCN(C)C)ccc3nnn2c31`, the TGI was 13.9 µM.
`Cc1ccc(S(=O)(=O)N/N=C2/CCCOC2)cc1` gave a TGI of over 100 µM.
`C[Si](C)(C)OC1CC(=O)OC1n1cc(F)c(=O)[nH]c1=O` (stereo not drawn) gave a TGI of over 100 µM.
`CCOC(=O)C1C(=O)CC1(C)C` (stereo not drawn) showed a TGI of over 10 µM.

These compounds were tested on SK-MEL-2 melanoma (assay: NCI tumour cell line growth inhibition, 48 h).
`O=c1cc(-c2ccc(Oc3ccccc3)cc2)[nH]c2cc3c(cc12)OCO3` was tested, and the TGI was over 100 µM.
With `CCOC(=O)CC(C)C1(C(=O)OCC)CCCCC1=O` (stereo not drawn) the TGI was over 100 µM.
In the case of `O=C(N/N=C\C=C\c1ccc([N+](=O)[O-])o1)C(=O)N/N=C\C=C\c1ccc([N+](=O)[O-])o1`, the TGI is reported as over 100 µM.
Work on `CC(=O)O[C@H]1C(=O)[C@@]2(C)C(C(OC(=O)c3ccccc3)[C@]3(O)CC(OC(=O)C(O)C(NC(=O)c4ccc(C(F)(F)F)cc4)c4ccccc4)C(C)=C1C3(C)C)[C@]1(OC(C)=O)CO[C@@H]1C[C@@H]2O` (stereo partly drawn) yielded a TGI of 0.284 µM.
`Nc1nc(-c2ccccc2)cc(-c2ccc(OCc3ccccc3)cc2O)n1` gave a TGI of over 100 µM.
`CCOC(=O)c1cn2c(n1)sc1cc(Cl)ccc12` was tested, and the TGI was over 100 µM.
`Cn1c(O)c(C(=O)NC2CCCCC2)c(=O)n(C)c1=S` was tested, and the TGI was 15 µM.
In the case of `CCN1CCN(c2nc3ccccc3c3c2CCOc2ccccc2-3)CC1`, the TGI is reported as over 67.4 µM.
`Nc1nc([O-])c2c(n1)[n+](C1OC(CO)C(O)C1O)cn2CCO` (stereo not drawn) showed a TGI of over 100 µM.
Compound `O=C(NCP(=O)(c1ccccc1)c1ccccc1)OCc1ccccc1` has a TGI of over 100 µM.
`CCOC(C)O[C@H]1C(=O)OCC1(C)C` (stereo partly drawn) gave a TGI of over 100 µM.
Work on `CC(CC[C@@]1(C)C(=O)CCC2O[C@]21C)[C@H]1C[C@@H](c2ccoc2)OC1=O` (stereo partly drawn) yielded a TGI of over 100 µM.
Compound `O=Cc1ccccc1COC(=O)c1cc(C(=O)OCc2ccccc2C=O)c(C(=O)OCc2ccccc2C=O)cc1C(=O)OCc1ccccc1C=O` has a TGI of over 100 µM.
`CCOC1=NC(O)c2cccn2-c2sccc21` (stereo not drawn) showed a TGI of over 100 µM.
For `COC(=O)c1cc2c(cc1CC(Cc1ccc3c(c1)CCCC3)C(=O)OC)CCCC2` (stereo not drawn), the TGI was over 100 µM.
`O=C1c2ccsc2C(=O)c2sc(CO)cc21` was tested, and the TGI was 0.232 µM.
Work on `O=C(c1cccs1)N1CCc2ccccc2C1` yielded a TGI of over 100 µM.
`CC1S/C(=N\N=C2/C(=O)Nc3ccc(Br)cc32)N(C2CCCCC2)C1=O` (stereo not drawn) showed a TGI of 3.65 µM.
Compound `CN(C)CC1CCCC(CN(C)C)C1OC(=O)c1ccccc1` (stereo not drawn) has a TGI of over 100 µM.
For `CCCCC1Cc2ccccc2-c2nc3ccccc3n21` (stereo not drawn), the TGI was 30.7 µM.
For `Cc1cc(N(CCC#N)CCC#N)ccc1/C=C(\NC(=O)/C=C/c1ccccc1)C(N)=O`, the TGI was over 100 µM.
In the case of `CCC(=O)Oc1ccc2c(c1)c(=O)c1c(NCCCN(C)C)ccc3nnn2c31`, the TGI is reported as 26.4 µM.
In the case of `Cc1ccc(S(=O)(=O)N/N=C2/CCCOC2)cc1`, the TGI is reported as over 100 µM.
`C[Si](C)(C)OC1CC(=O)OC1n1cc(F)c(=O)[nH]c1=O` (stereo not drawn) gave a TGI of over 100 µM.
For `CCOC(=O)C1C(=O)CC1(C)C` (stereo not drawn), the TGI was over 10 µM.

The compounds below were run on SR leukemia (assay: NCI tumour cell line growth inhibition, 48 h).
For `O=c1cc(-c2ccc(Oc3ccccc3)cc2)[nH]c2cc3c(cc12)OCO3`, the TGI was over 100 µM.
Compound `CCOC(=O)CC(C)C1(C(=O)OCC)CCCCC1=O` (stereo not drawn) has a TGI of 55.4 µM.
With `O=C(N/N=C\C=C\c1ccc([N+](=O)[O-])o1)C(=O)N/N=C\C=C\c1ccc([N+](=O)[O-])o1` the TGI was over 100 µM.
In the case of `CC(=O)O[C@H]1C(=O)[C@@]2(C)C(C(OC(=O)c3ccccc3)[C@]3(O)CC(OC(=O)C(O)C(NC(=O)c4ccc(C(F)(F)F)cc4)c4ccccc4)C(C)=C1C3(C)C)[C@]1(OC(C)=O)CO[C@@H]1C[C@@H]2O` (stereo partly drawn), the TGI is reported as 4.96 µM.
Compound `COC(=O)CC1N=C(NC#N)N(CCc2c[nH]c3ccccc23)C1=O` (stereo not drawn) has a TGI of over 100 µM.
`Nc1nc(-c2ccccc2)cc(-c2ccc(OCc3ccccc3)cc2O)n1` showed a TGI of over 100 µM.
In the case of `CCOC(=O)c1cn2c(n1)sc1cc(Cl)ccc12`, the TGI is reported as over 100 µM.
`Cn1c(O)c(C(=O)NC2CCCCC2)c(=O)n(C)c1=S` was tested, and the TGI was 48.9 µM.
`CCN1CCN(c2nc3ccccc3c3c2CCOc2ccccc2-3)CC1` showed a TGI of 24.8 µM.
With `Nc1nc([O-])c2c(n1)[n+](C1OC(CO)C(O)C1O)cn2CCO` (stereo not drawn) the TGI was over 100 µM.
`O=C(NCP(=O)(c1ccccc1)c1ccccc1)OCc1ccccc1` was tested, and the TGI was over 100 µM.
With `CCOC(C)O[C@H]1C(=O)OCC1(C)C` (stereo partly drawn) the TGI was over 100 µM.
Compound `CC(CC[C@@]1(C)C(=O)CCC2O[C@]21C)[C@H]1C[C@@H](c2ccoc2)OC1=O` (stereo partly drawn) has a TGI of over 100 µM.
Compound `O=Cc1ccccc1COC(=O)c1cc(C(=O)OCc2ccccc2C=O)c(C(=O)OCc2ccccc2C=O)cc1C(=O)OCc1ccccc1C=O` has a TGI of over 100 µM.
`CCOC1=NC(O)c2cccn2-c2sccc21` (stereo not drawn) gave a TGI of over 100 µM.
For `COC(=O)c1cc2c(cc1CC(Cc1ccc3c(c1)CCCC3)C(=O)OC)CCCC2` (stereo not drawn), the TGI was over 100 µM.
